How the values were obtained:
Assay type in all cases: in vivo
[1] = test system: Aegilops tauschii; assay: Soil sealing treatment pot experiment for controlling Aegilops tauschii (Example 1)
Excerpt: (§1) Referring to an article of Colby, S. R. i.e., Calculation of the synergistic and antagonistic response of herbicide combinations. Weeds 1967, 15, pp. 20-22 (which is incorporated herein in its entirety by reference), the theoretical value E0 of a given mixture of three active ingredients may be predicted according to the following equation, then evaluating whether there is synergy.
(§2) [formula] • wherein: • E0 is the theoretical fresh weight survival rate for the mixture of pyroxasulfone, chlorotoluron and […]; • X is the measured fresh weight survival rate for pyroxasulfone used alone in the same dosage as that in the mixture; • Y is the measured fresh weight survival rate for chlorotoluron used alone in the same dosage as that in the mixture; • Z is the measured fresh weight survival rate for mesosulfuron-methyl used alone in the same dosage as that in the mixture. • E is the measured fresh weight survival rate for the mixture of pyroxasulfone, chlorotoluron and mesosulfuron-methyl. • E0-E value is calculated to evaluate the combined effect of pyroxasulfone, chlorotoluron and mesosulfuron-methyl on the selected weeds.
(§3) In this example, the herbicidal activity of a mixture of pyroxasulfone, chlorotoluron and mesosulfuron-methyl for soil sealing treatment to control Aegilops tauschii is investigated by a pot experiment method under the conditions of a glass greenhouse. This example is carried out in accordance with “NY/T 1155.4-2006 Guidelines for Indoor Bioassay Tests of Pesticides, Herbicides Part 4: Activity Determination Tests, Stem and Leaf Spray Method”.
(§4) • Pyroxasulfone: pyroxasulfone (850 g/Kg, WG) from Adama Agan LTD. • Chlorotoluron: chlorotoluron (90 wt %, WG) from Adama Agan LTD. • Mesosulfuron-methyl: Sigma (30 g/L, OD) from Bayer AG. • Test location: Greenhouse of Institute of Plant Protection, Shandong Academy of Agricultural Sciences • Cultivation of test materials: The test soil is formed by mixing the 20 cm layer loam on the ground surface and the culture medium in a ratio of 3:1 as cultivation soil.
(§5) The test weeds are cultivated in a glass greenhouse at a temperature of 15-30° C. and natural light. A certain amount of Aegilops tauschil seeds are sown in a plastic pot with a diameter of 9 cm, covering with 1-2 mm soil, and putting them in an enamel dish filled with water. The bottom infiltration method is used to water them, waiting for the water to seep to the soil surface, and then transferring to a glass greenhouse for cultivation. The agents are applied on the second day after sowing Aegilops tauschii seeds.
(§6) For each active ingredient, the multiple dilution method is used to obtain the other five lower dosages from the highest dosage. A certain amount of agent is measured by pipette or balance, adding it directly to the water, and then diluting it to the required dosage by the multiple dilution method.
(§7) Spraying treatment: ASS-4 automatic control spraying system with a fan-shaped nozzle is used indoors to spray agent, the running speed is adjusted based on nozzle pressure, flow rate, etc. to spray 50 mL of chemical solution on the actual spray area of 1.1 m^2 (equivalent to 30 liters per mu), arranging the plastic pots to be processed on the spraying table evenly, and spraying evenly. The spraying pressure is 0.35 MPa, and the flow rate of the fan-shaped nozzle is 800 mL/min, spraying in order from low dosage to high dosage. Each treatment is repeated 3 times. After spraying, let it dry for one day, placing it in a glass greenhouse, and watering it regularly to keep moist.
Application time and frequency: the experiment is conducted on the second day after sowing Aegilops tauschii seeds, and the soil is evenly sprayed. The application time is Mar. 10, 2020, with one application.
Weed investigation method and time: after applying the agent, the symptoms of weed damage (such as growth inhibition, chlorosis, deformity, etc.) are recorded in detail. […]

[2] = test system: Aegilops tauschii; assay: Soil sealing treatment pot experiment for controlling Aegilops tauschii, more mixing ratios (Example 3)
Excerpt: as §1, §2, §3, §4, §5, §6, §7
Weed investigation method and time: after applying the agent, the symptoms of weed damage (such as growth inhibition, chlorosis, deformity, etc.) are recorded in detail. After 35 days, the fresh weight of aerial part of the weeds in each treatment is weighed, and the measured fresh weight inhibition rate and the measured fresh weight survival rate for each treatment are calculated according to the following equations: […]

[3] = test system: Lolium multiflorum Lamk; assay: Soil sealing treatment pot experiment for controlling Lolium multiflorum Lamk (Example 2)
[4] = single active ingredient, summary of Table 2

`Cn1nc(C(F)(F)F)c(CS(=O)(=O)C2=NOC(C)(C)C2)c1OC(F)F` [pyroxasulfone, 3-[(5-difluoromethoxy-1-methyl-3-trifluoromethylpyrazol-4-yl)methylsulfonyl]-4,5-dihydro-5,5-dimethyl-1,2-isoxazole] was tested, and the “Measured fresh weight survival rate (%) - E” value ([1]; 5.625 gai/ha, 35 days) was 101.3%, the “Measured fresh weight survival rate (%) - E” value ([1]; 11.25 gai/ha, 35 days) was 97.4% and the “Measured fresh weight survival rate (%) - E” value ([1]; 22.5 gai/ha, 35 days) was 98.7%. The “Measured fresh weight survival rate (%) - E” value ([1]; 45 gai/ha, 35 days) was 79.22%, the “Measured fresh weight survival rate (%) - E” value ([1]; 90 gai/ha, 35 days) was 75.32% and the “Measured fresh weight survival rate (%) - E” value ([1]; 180 gai/ha, 35 days) was 54.55%. For the same compound, the inhibition at 5.625 g/ha ([1]; Aegilops tauschii, soil, 840 h, 5.625 gai/ha, 35 days, read-out: Measured fresh weight inhibition rate (%)) was -1.3%, the inhibition at 11.25 g/ha ([1]; Aegilops tauschii, soil, 840 h, 11.25 gai/ha, 35 days, read-out: Measured fresh weight inhibition rate (%)) was 2.6% and the inhibition at 22.5 g/ha ([1]; Aegilops tauschii, soil, 840 h, 22.5 gai/ha, 35 days, read-out: Measured fresh weight inhibition rate (%)) was 1.3%. It also gave an inhibition at 45 g/ha ([1]; Aegilops tauschii, soil, 840 h, 45 gai/ha, 35 days, read-out: Measured fresh weight inhibition rate (%)) of 20.8%, an inhibition at 90 g/ha ([1]; Aegilops tauschii, soil, 840 h, 90 gai/ha, 35 days, read-out: Measured fresh weight inhibition rate (%)) of 24.7% and an inhibition at 180 g/ha ([1]; Aegilops tauschii, soil, 840 h, 180 gai/ha, 35 days, read-out: Measured fresh weight inhibition rate (%)) of 45.5%. For the same compound, the “control effect on Aegilops tauschii” value [1, 4] was “certain effect”, the “Actual fresh weight survival rate (%) - E” value ([2]; 45 gai/ha) was 75.0% and the “Actual fresh weight survival rate (%) - E” value ([2]; 90 gai/ha) was 51.7%. The “Actual fresh weight survival rate (%) - E” value ([2]; 180 gai/ha) was 34.5%, the inhibition at 45 g/ha ([2]; Aegilops tauschii, soil, 45 gai/ha, read-out: Actual fresh weight inhibition rate %) was 25% and the inhibition at 90 g/ha ([2]; Aegilops tauschii, soil, 90 gai/ha, read-out: Actual fresh weight inhibition rate %) was 48.3%. For the same compound, the inhibition at 180 g/ha ([2]; Aegilops tauschii, soil, 180 gai/ha, read-out: Actual fresh weight inhibition rate %) was 65.5%, the “Measured fresh weight survival rate (%) - E” value ([3]; 5.625 gai/ha, 35 days) was 69.23% and the “Measured fresh weight survival rate (%) - E” value ([3]; 11.25 gai/ha, 35 days) was 53.85%. The “Measured fresh weight survival rate (%) - E” value ([3]; 22.5 gai/ha, 35 days) was 51.65%, the “Measured fresh weight survival rate (%) - E” value ([3]; 45 gai/ha, 35 days) was 20.88% and the “Measured fresh weight survival rate (%) - E” value ([3]; 90 gai/ha, 35 days) was 0%. For the same compound, the “Measured fresh weight survival rate (%) - E” value ([3]; 180 gai/ha, 35 days) was 0%, the inhibition at 5.625 g/ha ([3]; Lolium multiflorum, soil, 840 h, 5.625 gai/ha, 35 days, read-out: Measured fresh weight inhibition rate (%)) was 30.8% and the inhibition at 11.25 g/ha ([3]; Lolium multiflorum, soil, 840 h, 11.25 gai/ha, 35 days, read-out: Measured fresh weight inhibition rate (%)) was 46.1%. It also gave an inhibition at 22.5 g/ha ([3]; Lolium multiflorum, soil, 840 h, 22.5 gai/ha, 35 days, read-out: Measured fresh weight inhibition rate (%)) of 48.4%, an inhibition at 45 g/ha ([3]; Lolium multiflorum, soil, 840 h, 45 gai/ha, 35 days, read-out: Measured fresh weight inhibition rate (%)) of 79.1% and an inhibition at 90 g/ha ([3]; Lolium multiflorum, soil, 840 h, 90 gai/ha, 35 days, read-out: Measured fresh weight inhibition rate (%)) of 100%. For the same compound, the inhibition at 180 g/ha ([3]; Lolium multiflorum, soil, 840 h, 180 gai/ha, 35 days, read-out: Measured fresh weight inhibition rate (%)) was 100% and the “effect on Lolium multiflorum Lamk” value [3, 4] was “best effect”.

From patent US12564194B2, “Herbicide mixture, herbicidal composition, method and kit for controlling undesired vegetation” (Adama Agan Ltd., priority 2020, dated 2026)
